Test results as given in ChEMBL document CHEMBL1144835, “Bioactive metabolites from the South African marine mollusk Trimusculus costatus” (J Nat Prod, 2008).

Assay: Cytotoxicity against human WHCO1 cells after 24 hrs by MTT assay
Type: functional, cell-based
Details: WHCO1, 24 h

Row | Structure (SMILES) | IC50
1 | CC(C)CCC[C@@H](C)[C@H]1CC[C@@H](C2=CC(=O)C3=C[C@H](O)CC[C@]3(C)C2=O)[C@]1(C)CCO | 3 µM
2 | CC(=O)O[C@H]1CC(C)(C)[C@@H]2[C@H](OC(C)=O)[C@@H](OC(C)=O)C(C)=C(CC/C(C)=C/CO)[C@@]2(C)C1 | 24 µM
3 | CC(=O)O[C@@H]1[C@@H](OC(C)=O)C(C)=C(CC/C(C)=C/CO)[C@@]2(C)CCCC(C)(C)[C@H]12 | 25 µM
4 | CC(=O)OC/C=C(\C)CCC1=C(C)[C@H](OC(C)=O)[C@@H](OC(C)=O)[C@H]2C(C)(C)CCC[C@]12C | 84 µM
